Assays:
[1] = tested on: RA patients; assay: Plasma PCSK9 concentration (ELISA), Study 4; format: in vivo, human; settings: for PCSK9 level, 4 weeks CFB: 4 weeks change from baseline
Method: Randomized double-blind, placebo-controlled add on study in subjects with active RA who have an inadequate response to MTX monotherapy, in combination with methotrexate, administered for 4 weeks in the treatment of subjects with active rheumatoid arthritis who have an inadequate response to methotrexate alone.
Compound 1 (dosed as a [Compound 1:HCl:3H2O]) capsules administered orally in 30 mg, 75 mg, 150 mg, or 300 mg doses per day for 4 weeks.
Plasma PCSK9 concentration was determined using a commercial available ELISA kit from R&D systems (614 McKinley Place NE, Minneapolis, Minn. 55413, USA) according to manufacturer's instruction. Catalogue number DPC900, lot number used: 321050.

[2] = tested on: healthy volunteers, and patients suffering from inflammatory diseases; assay: Lipid profile after oral administration of Compound 1 in humans (summary over the studies); format: in vivo, human
Method: When Compound 1 was administered orally in humans, an unexpected change in the lipid profile was observed.
In contrast, whereas Compound 1 raised the low [total cholesterol] levels, an unexpected disproportionate rise in blood of [HDL] vs [LDL] was observed. In particular, [HDL] levels of 5-23% compared to initial levels were seen. Moreover, this rise in [HDL] was substantially higher than the corresponding increases in [LDL] levels. In particular between 1.1 and 4 fold higher increases in [HDL] vs. [LDL] were seen.
Typically, in a recent treatment study with Tofacitinib, a JAK inhibitor for 6 weeks at a dose of 10 mg bid in RA patient, the atherogenic index was unchanged before and after treatment at about 3.5 (Charles-Schoeman et al., 2015) thus leaving the patient at an increased cardiovascular risk before and after treatment.
Furthermore, this effect was sustained over at least 12 weeks, and at least 24 weeks and were observed over a dose range of 50-200 mg administered either twice daily (b.i.d) or once a day (q.d.).
Additionally, this effect was seen both in healthy volunteers, and patients suffering from inflammatory diseases (for example RA and Crohn's disease).

`O=C(Nc1nc2cccc(-c3ccc(CN4CCS(=O)(=O)CC4)cc3)n2n1)C1CC1` [Compound 1, cyclopropanecarboxylic acid {5-[4-(1,1-dioxo-thiomorpholin-4-ylmethyl)-phenyl]-[1,2,4]triazolo[1,5-a]pyridin-2yl}-amide] was tested, and the “PCSK9 level, 4 weeks CFB” value ([1]; 30 mg q.d.) was 6.8%, the “PCSK9 level, Baseline” value ([1]; 30 mg q.d.) was 282.1 ng/mL and the “PCSK9 level, week 4” value ([1]; 30 mg q.d.) was 296.9 ng/mL. The “PCSK9 level, 4 weeks CFB” value ([1]; 75 mg q.d.) was 11.4%, the “PCSK9 level, Baseline” value ([1]; 75 mg q.d.) was 277.0 ng/mL and the “PCSK9 level, week 4” value ([1]; 75 mg q.d.) was 292.4 ng/mL. For the same molecule, the “PCSK9 level, 4 weeks CFB” value ([1]; 150 mg q.d.) was 11.6%, the “PCSK9 level, Baseline” value ([1]; 150 mg q.d.) was 264.4 ng/mL and the “PCSK9 level, week 4” value ([1]; 150 mg q.d.) was 294.6 ng/mL. The “PCSK9 level, 4 weeks CFB” value ([1]; 300 mg q.d.) was 10.4%, the “PCSK9 level, Baseline” value ([1]; 300 mg q.d.) was 261.7 ng/mL and the “PCSK9 level, week 4” value ([1]; 300 mg q.d.) was 291.2 ng/mL. For the same molecule, the “rise in [HDL] levels compared to initial levels” value ([2]; administered orally in humans) was 5-23% and the atherogenic index ([2]; doses ranging from 50 mg to 200 mg (once or twice daily) for a period of at least 4 weeks) was “drop of the atherogenic index”.

From patent US10376520B2, “Methods for the treatment of cardiovascular disorders” (Galapagos NV, priority 2015, dated 2019)
